{
  "source": "patent US7288273B1",
  "about": "“Gallotannins and ellagitannins as regulators of cytokine release” (The Penn State Research Foundation, priority 2000, dated 2007)",
  "key": {"[1]": {"settings": "in vivo; cited from earlier work"}, "[2]": {"tested_on": "IL-1β secretion from h-PBMC's", "assay": "IL-1β release from h-PBMC's, ELISA", "format": "cell-based, human", "settings": "h-PBMC's", "experimental": "(§1) Authentic samples of agrimoniin and coriariin A were supplied by Professor Yoshida (Okayama University, Japan). Dimeric gallotannin (analog of coriariin A) and β-D-PGG were synthesized as described. LPS (E. coli 055:B5 phenol extract, MW range 50-100 KD). Ficoll-Histopaque (ρ=1.077 g/mL), Fetal Bovine Serum, sterile, hybridoma tested (FCS), gentamicin 10 mg/mL. L-glutamine, 200 mM. Dextran B-512 Leuconostoc Av M.W. 580000, and Trypan Blue stain were purchased from Sigma. Hanks Buffer Saline Solution 1×, with phenol red, mediatech (HBSS) and RPMI 1640 1×, mediatech were purchased from Fisher Scientific, Human IL-1β and TNF-α Enzyme Linked ImmunoSorbent Assay (ELISA) kits were purchased from R and D Systems, Minneapolis, Minn. Fresh heparinized blood was obtained from health human subjects (ages 20-34).\n(§2) Dose-Response Data: General Procedure. H-PBMC's were isolated by reported procedures (10. 18). The cells counted and the viability was determined by Trypan Blue exclusion (typically, viability exceeded 95%). The concentration of the cells in the 0.5 mL wells was adjusted to 1×10^6 cells/well by diluting with the required amount of RPMI.\n(§3) The appropriate amount of a tannin (or LPS) stock solution in HBSS was added to each well to furnish the concentration values reported in the Figures. […] The culture plates were incubated in a 5% CO2, 37° C. humidified incubator for the indicated time. At the end of the time interval, 450 μL of the culture supernatant from each well was harvested, after centrifugation at 400 g, 25° C., 10 min. with brake, and stored at −78° C. pending ELISA analysis for the cytokine(s). The ELISA assays were conducted per the manufacturer's instructions using standard calibration curves to calculate cytokine concentration from observed absorbance readings. The cytokine values reported are averages of three runs±SE.\n(§4) The dimeric antitumor ellagitannins coriariin A and agrimoniin, the monomeric gallotannin β-D-pentagalloylglucose (β-D-PGG) and the dimeric gallotannin of this invention were all examined in this study. The dimeric gallotannin is an analog of coriariin A and is identical to the parent ellagitannin except that the galloyl rings at O(4) and O(6) are not joined in a hexahydroxydiphenoyl (HHDP) linkage. h-PBMC's were incubated with the compound under investigation for the indicated length of time and the amounts of both IL-1β and, independently, TNF-α, present in the culture supernatants was determined using commercially available ELISA kits. In each case, LPS was used as a positive control while untreated cells were reserved as negative controls.\nIn the third study, compounds 17c-20c were examined for their ability to induce secretion of IL-1β from h-PBMC's (FIG. 16). Recall from the introduction that the cytokine IL-1β is also released in an LPS-stimulated septic shock response. The compounds that cause very little secretion of IL-1β or none at all will be the optimal compounds for potential septic shock therapeutics because they will be less likely themselves to induce a septic shock response."}, "L929 murine fibroblast": {"tested_on": "L929 murine fibroblast", "assay": "qualitative L929 murine fibroblast lysis assay of h-PBMC supernatant", "format": "cell-based", "description": "This indirect measure of TNF-α levels in the h-PBMC supernatant provided the first evidence which implicated this cytokine in tannin-mediated antitumor activity and encouraged a more quantitative assessment of the TNF-α liberating capacity of agrimoniin and the related species as described below."}, "sarcoma-180 tumors": {"tested_on": "sarcoma-180 tumors", "settings": "cited from earlier work; for antitumor effect, in words: mice infected with sarcoma-180 tumors; for life span increase / regressors: Miyamoto's mouse studies, sarcoma-180"}, "[3]": {"tested_on": "IL-1β secretion from h-PBMC's", "settings": "cited from earlier work"}, "[4]": {"tested_on": "TNF-α secretion from h-PBMC's", "assay": "TNF-α release from h-PBMC's, ELISA", "format": "cell-based, human", "experimental": "as §1, §2, §3, §4\nIn the first study, the induction of TNF-α secretion from h-PBMC's in the presence of each compound 17c-21c was measured. The h-PBMC's were incubated with each compound for 24 hours. The TNF-α levels in the cell culture supernatant were assayed by Enzyme Linked ImmunoSorbant Assay (ELISA). The data point for each assay represent the mean of triplicate measurements. […] (See FIG. 11)."}, "[5]": {"tested_on": "LPS induced TNF-α secretion from h-PBMC's", "assay": "Inhibition of LPS induced TNF-α secretion from h-PBMC's", "format": "cell-based, human", "settings": "h-PBMC's", "experimental": "In the second study, the ability of compounds 17c-20c to inhibit LPS induced TNF-α production in h-PBMC's was investigated using four assays. The first experiment was a kinetics run in which the h-PBMC's were initially incubated with a fixed concentration of LPS (5 μg/mL) for 45 minutes. This incubation period was followed by addition of a fixed concentration (10 μg/mL) of compounds 17c-20c. The cells were harvested at varying intervals of time. […] The optimal time was determined by comparing the amount of TNF-α secreted by LPS alone to the amount of TNF-α secreted by LPS and substrate at each time point.\nThe second assay determined the minimum amount of substrate required for inhibition. LPS (10 μg/mL) was incubated with h-PBMC's for 45 minutes followed by addition of 17c-20c at varying concentrations. The cell culture supernatant was harvested after 8 hours. The inherent variability in using cells from different subjects, or in the day of assay, made it difficult to compare overall effectiveness of inhibitors. Therefore, to more easily identify the concentration at which maximum inhibition occurs for a given compound, the TNF-α secretion was normalized by calculating a percent of maximum secretion value (based on LPS alone) (FIG. 13). […] The optimal concentration for inhibition varied between substrates, but the general dose response trend was the same. Overall, the maximum inhibition was 45% for 18c and 20c, and 25% for 19c.\nThe third assay investigated the ability of 17c, 18c, and 20c to inhibit LPS induced TNF-α secretion using a smaller dosage of LPS (5 μg/mL) (FIG. 14). Again, the response was dose dependent. The maximum inhibition was 45% for 17c and 20c, and 35% for 18c.\nIn the fourth assay the varying concentrations of substrates 17c-20c and LPS were added at the same time to determine the effect of addition sequence on the inhibition of TNF-α secretion (FIG. 15). The addition time seemed to make a difference in the overall dose response trend. However, maximum inhibition was the same as when the compounds were added 45 minutes after LPS addition (about 40% for each compound).\nFinally, in the last study, analogs 19c and 20c were again tested for inhibition LPS induced TNF-α secretion (FIG. 17). In this assay a smaller dose of LPS was used to determine if inhibition was greater when much lower doses of LPS were present. The substrates were added 45 minutes after LPS addition and the cells were harvested after 8 hours. It doesn't appear as though the substrates are better inhibitors when smaller amounts of LPS are used, again perhaps reflecting receptor saturation with LPS at this dosage."}, "[6]": {"tested_on": "LPS induced secretion of TNF-α", "assay": "In vivo study in rats given LPS with or without β-PGG", "experimental": "The ability of β-PGG to function in vivo was investigated in collaboration with Dr. Charles Lang of the Hershey Medical School. In this experiment, two groups of rats were used. One group was intravenously administered 1 mg/kg of LPS as well as 25 mg of β-PGG. The second group was given only 1 mg/kg of LPS. […] These preliminary in vivo results were encouraging, however several problems with the use of β-PGG as an inhibitor are evident. A large amount of β-PGG was required to elicit inhibition because β-PGG is a small monomeric gallotannin that is able to interact with other blood proteins such as rat serum albumin."}, "[7]": {"settings": "fixed concentrations, time course"}, "[8]": {"settings": "rats, 1 mg/kg LPS intravenously and 25 mg β-PGG"}},
  "note": "Where “and” joins values, the source holds several entries; their conditions need not be identical. Identical values can stand only once.",
  "data": [
    {"molecule": "TNF-α", "values": [
      {"measurement": "clearance from serum, t1/2", "setting": "[1]", "value": "6.5 to 10.5", "unit": "min"}
    ]},
    {"molecule": "O=C(O[C@H]1O[C@@H]2COC(=O)c3cc(O)c(O)c(O)c3-c3c(cc(O)c(O)c3O)C(=O)O[C@H]2[C@@H]2OC(=O)c3cc(O)c(O)c(O)c3-c3c(cc(O)c(O)c3O)C(=O)O[C@@H]12)c1cc(O)c(O)c(Oc2c(C(=O)O[C@H]3O[C@@H]4COC(=O)c5cc(O)c(O)c(O)c5-c5c(cc(O)c(O)c5O)C(=O)O[C@H]4[C@@H]4OC(=O)c5cc(O)c(O)c(O)c5-c5c(cc(O)c(O)c5O)C(=O)O[C@@H]34)cc(O)c(O)c2O)c1", "note": "[agrimoniin]", "values": [
      {"measurement": "IL-1β secreted above blank", "setting": "[2]; 4 h treatment with 28 μM agrimoniin", "value": "ca. 1 ng/mL"},
      {"measurement": "release of TNF-α, indirect measure by L929 lysis", "setting": "L929 murine fibroblast", "value": "promoted release of TNF-α in substantial amounts"},
      {"measurement": "antitumor effect, in words", "setting": "sarcoma-180 tumors", "value": "induce tumor regression"},
      {"measurement": "IL-1β secreted (reported earlier)", "setting": "[3]; 20 μM agrimoniin", "value": "ca. 1.2 ng/mL"},
      {"measurement": "time of maximal IL-1β secretion", "setting": "[3]; agrimoniin-mediated, Miyamoto", "value": "ca. 24 h"}
    ]},
    {"molecule": "O=C(OCC1OC(OC(=O)c2cc(O)c(O)c(O)c2)[C@H](OC(=O)c2cc(O)c(O)c(O)c2)[C@@H](OC(=O)c2cc(O)c(O)c(O)c2)C1OC(=O)c1cc(O)c(O)c(O)c1)c1cc(O)c(O)c(O)c1", "note": "(stereo partly drawn) [Compound 1, β-D-pentagalloylglucose]", "values": [
      {"measurement": "IL-1β detected at 4 h reading", "setting": "[2]; fixed concentrations, 4 h", "value": "only trace amounts"},
      {"measurement": "time of maximum IL-1β discharge", "setting": "[2]; [7]", "value": "ca. 24 h"},
      {"measurement": "IL-1β secretion from h-PBMC's, in words", "setting": "[2]; listed as β-D-PGG", "value": "effective at stimulating the production of IL-1β"},
      {"measurement": "IL-1β secretion from h-PBMC's, in words", "setting": "[2]; listed as β-PGG", "value": "high levels of IL-1β"},
      {"measurement": "TNF-α secretion from h-PBMC's, in words", "setting": "[4]", "value": "much less TNF-α discharge"},
      {"measurement": "TNF-α detected at 4 h reading", "setting": "[4]; fixed concentrations, 4 h", "value": "only trace amounts"},
      {"measurement": "time of maximum TNF-α discharge", "setting": "[4]; [7]", "value": "ca. 24 h"},
      {"measurement": "inhibition of LPS induced TNF-α secretion from h-PBMC's, in words", "setting": "[5]", "value": "can inhibit LPS induced secretion of TNF-α"},
      {"measurement": "TNF-α secreted from 90 min", "setting": "[6]; rats given LPS 1 mg/kg intravenously + 25 mg β-PGG (LPS + 1), 90 min, individual rats, ± SD", "value": "6919.4 ± 823.2 pg/mL and 4509.4 ± 583.3 pg/mL and 8060.7 ± 918.2 pg/mL and 1928.4 ± 331.5 pg/mL"},
      {"measurement": "TNF-α secreted after 180 min", "setting": "[6]; rats given LPS 1 mg/kg intravenously + 25 mg β-PGG (LPS + 1), 180 min, individual rats, ± SD", "value": "733.9 ± 28.3 pg/mL and 291.7 ± 68.0 pg/mL and 1347.5 ± 150.4 pg/mL and 129.9 ± 105.5 pg/mL"},
      {"measurement": "TNF-α secretion compared to LPS-only rats, in words", "setting": "[6]; [8]", "value": "suppressed levels of TNF-α secretion"},
      {"measurement": "septic shock response (blood pressure)", "setting": "[6]; [8]", "value": "low blood pressure was still observed"},
      {"measurement": "life span increase", "setting": "sarcoma-180 tumors", "value": 82, "unit": "%"},
      {"measurement": "regressors", "setting": "sarcoma-180 tumors", "value": "0/6"},
      {"measurement": "antitumor effect, in words", "setting": "sarcoma-180 tumors", "value": "much less effective antitumor agents"}
    ]},
    {"molecule": "O=C(OC1OC2COC(=O)c3cc(O)c(O)c(O)c3-c3c(cc(O)c(O)c3O)C(=O)OC2C(OC(=O)c2cc(O)c(O)c(O)c2)C1OC(=O)c1cc(O)c(O)c(O)c1)c1cc(O)c(O)c(Oc2c(C(=O)OC3OC4COC(=O)c5cc(O)c(O)c(O)c5-c5c(cc(O)c(O)c5O)C(=O)OC4C(OC(=O)c4cc(O)c(O)c(O)c4)C3OC(=O)c3cc(O)c(O)c(O)c3)cc(O)c(O)c2O)c1", "note": "(stereo not drawn) [coriariin A]", "values": [
      {"measurement": "IL-1β inducing ability relative to agrimoniin on a molar basis", "setting": "[2]; 4 h", "value": "twice that of agrimoniin"},
      {"measurement": "TNF-α secretion from h-PBMC's, in words", "setting": "[4]", "value": "higher levels of TNF-α"},
      {"measurement": "release of TNF-α, indirect measure by L929 lysis", "setting": "L929 murine fibroblast", "value": "promoted release of TNF-α in substantial amounts"},
      {"measurement": "life span increase", "setting": "sarcoma-180 tumors", "value": 238, "unit": "%"},
      {"measurement": "regressors", "setting": "sarcoma-180 tumors", "value": "3/6"},
      {"measurement": "antitumor effect, in words", "setting": "sarcoma-180 tumors", "value": "induce tumor regression"}
    ]}
  ]
}
